Test system: Ps. cepacia
Experiment: Challenge test of BANS against Ps. cepacia (preservative effectiveness)
Assay type: cell-based, Pseudomonas cepacia (now known as Burkhoderia cepacia)
Details: phenylethylalcohol together with benzalkonium chloride in the formulation; FIG. 7
Text: 4) Challenge Test of BANS Against Ps. Cepacia
Formulations corresponding to BANS and the same formulation containing only 0.02% (w/w) benzalkonium chloride as preservative (i.e. no phenylethyl alcohol) and the same formulation containing only 0.275% (v/w) phenylethylalcohol as preservative (i.e. no benzalkonium chloride) were challenged with an innoculum of Ps cepacia.

Compound: OCCc1ccccc1 [phenylethylalcohol, Phenylethyl alcohol]
- preservative properties by killing Pseudomonas cepacia: synergistic effect with benzalkonium chloride

From US6780398B1, “Aqueous nasal formulation” (Glaxo Smithkline Kabushiki Kaisha, priority 1999, dated 2004)
